Assay results: the NIST ThermoML archive (doi:10.1021/je100715x)

Assays:
[1] = refractive index (Na D-line) (dimensionless); xn = mol fraction of the nth substance listed; details: 101 kPa, Liquid, Standard Abbe refractometry
[2] = xn = mol fraction of the nth substance listed; details: 101 kPa, Liquid; for viscosity: Capillary tube (Ostwald / Ubbelohde) method; for mass density: Vibrating tube method

CCOC(=O)C(=O)OCC [diethyl ethanedioate] + CC(=O)c1ccccc1
Details	mass density, 303.15 K [kg/m3]	mass density, 308.15 K [kg/m3]	mass density, 313.15 K [kg/m3]	refractive index, 303.15 K	refractive index, 308.15 K	refractive index, 313.15 K	viscosity, 303.15 K [mPa·s]	viscosity, 308.15 K [mPa·s]	viscosity, 313.15 K [mPa·s]
[1], x1 = 0.0875	–	–	–	1.5171	1.5151	1.5133	–	–	–
[1], x1 = 0.1478	–	–	–	1.5087	1.5068	1.5053	–	–	–
[1], x1 = 0.2538	–	–	–	1.4945	1.4928	1.4912	–	–	–
[1], x1 = 0.3443	–	–	–	1.4826	1.4811	1.4796	–	–	–
[1], x1 = 0.4591	–	–	–	1.4685	1.4671	1.4656	–	–	–
[1], x1 = 0.5501	–	–	–	1.4574	1.456	1.4544	–	–	–
[1], x1 = 0.6601	–	–	–	1.4439	1.4424	1.4411	–	–	–
[1], x1 = 0.7601	–	–	–	1.4325	1.4309	1.4293	–	–	–
[1], x1 = 0.8846	–	–	–	1.4187	1.4167	1.4154	–	–	–
[1], x1 = 0.95	–	–	–	1.4117	1.4095	1.4079	–	–	–
[2], x1 = 0.0875	1024.1	1021	1017.4	–	–	–	1.557	1.405	1.308
[2], x1 = 0.1478	1026.7	1023.6	1019.9	–	–	–	1.578	1.418	1.317
[2], x1 = 0.2538	1031.2	1027.9	1024	–	–	–	1.61	1.439	1.333
[2], x1 = 0.3443	1034.9	1031.5	1027.5	–	–	–	1.628	1.454	1.344
[2], x1 = 0.4591	1039.9	1036.2	1032	–	–	–	1.645	1.467	1.355
[2], x1 = 0.5501	1044	1040.1	1035.7	–	–	–	1.655	1.477	1.362
[2], x1 = 0.6601	1049.3	1045.2	1040.2	–	–	–	1.657	1.485	1.366
[2], x1 = 0.7601	1054.3	1049.8	1044.5	–	–	–	1.654	1.487	1.37
[2], x1 = 0.8846	1060.6	1055.6	1049.9	–	–	–	1.648	1.489	1.373
[2], x1 = 0.95	1063.8	1058.5	1052.5	–	–	–	1.635	1.49	1.375

CCOC(=O)C(=O)OCC [diethyl ethanedioate] + O=C1CCCCC1
Details	mass density, 303.15 K [kg/m3]	mass density, 308.15 K [kg/m3]	mass density, 313.15 K [kg/m3]	refractive index, 303.15 K	refractive index, 308.15 K	refractive index, 313.15 K	viscosity, 303.15 K [mPa·s]	viscosity, 308.15 K [mPa·s]	viscosity, 313.15 K [mPa·s]
[1], x1 = 0.0784	–	–	–	1.4429	1.4406	1.4388	–	–	–
[1], x1 = 0.1495	–	–	–	1.4399	1.4376	1.4359	–	–	–
[1], x1 = 0.2501	–	–	–	1.4359	1.434	1.4321	–	–	–
[1], x1 = 0.3443	–	–	–	1.4323	1.4307	1.4287	–	–	–
[1], x1 = 0.4324	–	–	–	1.4287	1.4273	1.4252	–	–	–
[1], x1 = 0.5507	–	–	–	1.4239	1.4223	1.4204	–	–	–
[1], x1 = 0.6755	–	–	–	1.4186	1.4168	1.4152	–	–	–
[1], x1 = 0.7601	–	–	–	1.4154	1.4133	1.4116	–	–	–
[1], x1 = 0.8756	–	–	–	1.4108	1.4088	1.4071	–	–	–
[1], x1 = 0.9502	–	–	–	1.4081	1.4059	1.4043	–	–	–
[2], x1 = 0.0784	950.2	945.1	940.1	–	–	–	1.777	1.595	1.466
[2], x1 = 0.1495	961	955.8	950.6	–	–	–	1.737	1.556	1.416
[2], x1 = 0.2501	975.4	970.3	964.9	–	–	–	1.682	1.5	1.36
[2], x1 = 0.3443	988.4	983.1	977.7	–	–	–	1.637	1.461	1.325
[2], x1 = 0.4324	1000	994.7	989.2	–	–	–	1.609	1.435	1.304
[2], x1 = 0.5507	1015.1	1009.6	1004	–	–	–	1.584	1.415	1.285
[2], x1 = 0.6755	1030.3	1024.7	1019	–	–	–	1.575	1.404	1.276
[2], x1 = 0.7601	1040.2	1034.5	1028.7	–	–	–	1.581	1.407	1.284
[2], x1 = 0.8756	1053.1	1047.4	1041.4	–	–	–	1.606	1.437	1.329
[2], x1 = 0.9502	1061	1055.3	1049.3	–	–	–	1.62	1.464	1.351

CCOC(=O)C(=O)OCC [diethyl ethanedioate] + CCC(=O)CC
Details	mass density, 303.15 K [kg/m3]	mass density, 308.15 K [kg/m3]	mass density, 313.15 K [kg/m3]	refractive index, 303.15 K	refractive index, 308.15 K	refractive index, 313.15 K	viscosity, 303.15 K [mPa·s]	viscosity, 308.15 K [mPa·s]	viscosity, 313.15 K [mPa·s]
[1], x1 = 0.0865	–	–	–	1.3901	1.3881	1.3861	–	–	–
[1], x1 = 0.1436	–	–	–	1.3916	1.3897	1.3877	–	–	–
[1], x1 = 0.2448	–	–	–	1.3941	1.3924	1.3906	–	–	–
[1], x1 = 0.3389	–	–	–	1.3962	1.3947	1.393	–	–	–
[1], x1 = 0.4495	–	–	–	1.3984	1.3969	1.3954	–	–	–
[1], x1 = 0.5325	–	–	–	1.3999	1.3983	1.3969	–	–	–
[1], x1 = 0.6518	–	–	–	1.4018	1.4	1.3986	–	–	–
[1], x1 = 0.7587	–	–	–	1.4033	1.4014	1.3998	–	–	–
[1], x1 = 0.8659	–	–	–	1.4047	1.4026	1.4008	–	–	–
[1], x1 = 0.9438	–	–	–	1.4056	1.4034	1.4015	–	–	–
[2], x1 = 0.0865	834	829.9	825.8	–	–	–	0.485	0.452	0.44
[2], x1 = 0.1436	852	847.8	843.6	–	–	–	0.527	0.491	0.478
[2], x1 = 0.2448	882.5	878.2	873.8	–	–	–	0.61	0.567	0.551
[2], x1 = 0.3389	909.4	905	900.5	–	–	–	0.701	0.65	0.627
[2], x1 = 0.4495	939.4	934.8	930.1	–	–	–	0.818	0.759	0.726
[2], x1 = 0.5325	960.8	956.1	951.2	–	–	–	0.916	0.848	0.808
[2], x1 = 0.6518	990	985.1	979.9	–	–	–	1.071	0.987	0.936
[2], x1 = 0.7587	1014.7	1009.6	1004.2	–	–	–	1.224	1.121	1.061
[2], x1 = 0.8659	1038.2	1032.9	1027.2	–	–	–	1.395	1.274	1.196
[2], x1 = 0.9438	1054.6	1049.1	1043.3	–	–	–	1.525	1.391	1.295

CCOC(=O)C(=O)OCC [diethyl ethanedioate] + O=C1CCCC1
Details	mass density, 303.15 K [kg/m3]	mass density, 308.15 K [kg/m3]	mass density, 313.15 K [kg/m3]	refractive index, 303.15 K	refractive index, 308.15 K	refractive index, 313.15 K	viscosity, 303.15 K [mPa·s]	viscosity, 308.15 K [mPa·s]	viscosity, 313.15 K [mPa·s]
[1], x1 = 0.0679	–	–	–	1.4299	1.4278	1.4262	–	–	–
[1], x1 = 0.1501	–	–	–	1.4264	1.4244	1.4231	–	–	–
[1], x1 = 0.2518	–	–	–	1.4226	1.4207	1.4198	–	–	–
[1], x1 = 0.3903	–	–	–	1.4182	1.4164	1.4158	–	–	–
[1], x1 = 0.4511	–	–	–	1.4164	1.4147	1.4142	–	–	–
[1], x1 = 0.5509	–	–	–	1.4139	1.4122	1.4116	–	–	–
[1], x1 = 0.6587	–	–	–	1.4115	1.4098	1.4089	–	–	–
[1], x1 = 0.7587	–	–	–	1.4098	1.4079	1.4067	–	–	–
[1], x1 = 0.8755	–	–	–	1.408	1.4059	1.4043	–	–	–
[1], x1 = 0.961	–	–	–	1.4068	1.4045	1.4027	–	–	–
[2], x1 = 0.0679	950.9	946.1	941.1	–	–	–	1.045	0.96	0.891
[2], x1 = 0.1501	965	960.1	954.9	–	–	–	1.095	0.999	0.925
[2], x1 = 0.2518	981	976	970.6	–	–	–	1.153	1.048	0.968
[2], x1 = 0.3903	1000.6	995.4	989.9	–	–	–	1.233	1.119	1.031
[2], x1 = 0.4511	1008.5	1003.2	997.7	–	–	–	1.265	1.152	1.058
[2], x1 = 0.5509	1020.7	1015.3	1009.7	–	–	–	1.326	1.207	1.107
[2], x1 = 0.6587	1032.9	1027.4	1021.7	–	–	–	1.394	1.269	1.163
[2], x1 = 0.7587	1043.4	1037.9	1032.1	–	–	–	1.458	1.329	1.219
[2], x1 = 0.8755	1054.9	1049.3	1043.3	–	–	–	1.537	1.401	1.288
[2], x1 = 0.961	1062.7	1057	1051	–	–	–	1.596	1.454	1.342
